From ChEMBL document CHEMBL5653615 (J Biol Chem, 2013)

Assays:
[1] = target: Calcium/calmodulin-dependent protein kinase type 1 (Homo sapiens) (UniProt Q14012); assay: Inhibition of human CAMK1a at 18.6 nM by HotSpot assay relative to control
[2] = target: Tyrosine-protein kinase Lck (Homo sapiens) (UniProt P06239); assay: Inhibition of human LCK at 18.6 nM by HotSpot assay relative to control
[3] = target: Dual specificity mitogen-activated protein kinase kinase 1 (Homo sapiens) (UniProt Q02750); assay: Inhibition of human MEK1 at 18.6 nM by HotSpot assay relative to control
Chain of Dual specificity mitogen-activated protein kinase kinase 1 (Homo sapiens) (Q02750 whole entry): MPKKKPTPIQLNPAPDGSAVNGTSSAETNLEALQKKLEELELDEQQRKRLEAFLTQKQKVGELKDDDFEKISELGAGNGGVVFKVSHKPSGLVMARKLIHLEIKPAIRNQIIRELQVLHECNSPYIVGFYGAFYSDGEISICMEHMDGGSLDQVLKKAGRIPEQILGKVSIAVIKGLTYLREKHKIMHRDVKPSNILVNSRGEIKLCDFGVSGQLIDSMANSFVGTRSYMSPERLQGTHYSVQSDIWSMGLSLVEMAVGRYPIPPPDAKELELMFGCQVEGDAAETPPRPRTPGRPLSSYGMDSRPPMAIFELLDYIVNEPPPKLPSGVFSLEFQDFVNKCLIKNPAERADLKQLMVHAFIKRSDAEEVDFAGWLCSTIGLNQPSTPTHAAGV

[4] = target: T1, Dual specificity mitogen-activated protein kinase kinase 6 (Homo sapiens) (UniProt P52564); assay: Inhibition of human MKK6 at 18.6 nM by HotSpot assay relative to control
T1 sequence (whole entry): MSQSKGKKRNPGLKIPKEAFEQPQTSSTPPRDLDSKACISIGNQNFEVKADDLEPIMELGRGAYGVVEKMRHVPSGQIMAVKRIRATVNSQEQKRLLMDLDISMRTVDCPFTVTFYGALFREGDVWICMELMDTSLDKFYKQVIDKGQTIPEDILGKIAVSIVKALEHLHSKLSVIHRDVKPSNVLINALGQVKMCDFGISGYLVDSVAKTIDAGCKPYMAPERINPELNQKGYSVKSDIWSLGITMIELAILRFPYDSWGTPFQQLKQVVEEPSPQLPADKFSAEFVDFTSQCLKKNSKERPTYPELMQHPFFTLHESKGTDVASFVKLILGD

[5] = target: Serine/threonine-protein kinase PAK 1 (Homo sapiens) (UniProt Q13153); assay: Inhibition of human PAK1 at 18.6 nM by HotSpot assay relative to control
[6] = target: T2, NUAK family SNF1-like kinase 2 (Homo sapiens) (UniProt Q9H093); assay: Inhibition of human NUAK2 at 18.6 nM by HotSpot assay relative to control
T2 sequence (whole entry): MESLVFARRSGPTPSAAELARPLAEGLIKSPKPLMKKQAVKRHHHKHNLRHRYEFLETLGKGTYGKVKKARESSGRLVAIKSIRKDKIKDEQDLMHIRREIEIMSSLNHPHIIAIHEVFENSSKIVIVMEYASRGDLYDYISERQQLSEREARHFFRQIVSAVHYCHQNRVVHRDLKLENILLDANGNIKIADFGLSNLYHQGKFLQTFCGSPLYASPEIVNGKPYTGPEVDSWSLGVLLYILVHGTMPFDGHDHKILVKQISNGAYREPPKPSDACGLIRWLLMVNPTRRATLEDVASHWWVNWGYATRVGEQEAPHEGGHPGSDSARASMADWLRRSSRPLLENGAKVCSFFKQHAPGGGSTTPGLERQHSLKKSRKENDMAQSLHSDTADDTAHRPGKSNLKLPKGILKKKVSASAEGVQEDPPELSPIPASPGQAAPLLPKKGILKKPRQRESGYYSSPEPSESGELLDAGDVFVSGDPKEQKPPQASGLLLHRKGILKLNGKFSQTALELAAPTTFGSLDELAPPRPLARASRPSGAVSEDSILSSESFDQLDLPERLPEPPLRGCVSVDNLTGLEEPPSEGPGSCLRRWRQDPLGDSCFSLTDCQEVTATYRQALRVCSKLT

[7] = target: Serine/threonine-protein kinase OSR1 (Homo sapiens) (UniProt O95747); assay: Inhibition of human OXSR1 at 18.6 nM by HotSpot assay relative to control
Chain of Serine/threonine-protein kinase OSR1 (Homo sapiens) (O95747 whole entry, looked up): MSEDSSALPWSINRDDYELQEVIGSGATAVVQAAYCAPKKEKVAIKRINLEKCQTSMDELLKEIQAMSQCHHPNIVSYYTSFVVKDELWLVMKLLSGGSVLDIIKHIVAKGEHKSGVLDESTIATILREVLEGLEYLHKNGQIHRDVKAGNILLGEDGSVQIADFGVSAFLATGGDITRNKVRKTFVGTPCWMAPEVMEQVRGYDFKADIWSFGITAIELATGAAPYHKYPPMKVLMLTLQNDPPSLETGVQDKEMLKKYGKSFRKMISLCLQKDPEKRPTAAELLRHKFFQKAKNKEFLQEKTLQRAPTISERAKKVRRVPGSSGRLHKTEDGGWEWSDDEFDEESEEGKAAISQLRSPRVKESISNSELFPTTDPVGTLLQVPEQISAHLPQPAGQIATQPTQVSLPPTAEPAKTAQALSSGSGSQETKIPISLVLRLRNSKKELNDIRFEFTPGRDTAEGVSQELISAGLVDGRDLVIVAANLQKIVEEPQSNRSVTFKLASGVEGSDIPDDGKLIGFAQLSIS

[8] = target: T3, Aurora kinase C (Homo sapiens) (UniProt Q9UQB9); assay: Inhibition of human Aurora C at 1.82 nM by HotSpot assay relative to control
T3 sequence (whole entry): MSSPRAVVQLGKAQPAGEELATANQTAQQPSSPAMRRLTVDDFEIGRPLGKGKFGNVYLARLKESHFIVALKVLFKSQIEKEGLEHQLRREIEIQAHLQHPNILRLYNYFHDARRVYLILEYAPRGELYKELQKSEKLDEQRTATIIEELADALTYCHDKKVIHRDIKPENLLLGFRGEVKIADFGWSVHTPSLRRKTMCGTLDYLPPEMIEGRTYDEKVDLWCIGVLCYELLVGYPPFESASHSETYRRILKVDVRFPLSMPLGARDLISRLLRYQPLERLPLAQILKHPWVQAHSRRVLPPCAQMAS

[9] = target: Casein kinase I isoform delta (Homo sapiens) (UniProt P48730); assay: Inhibition of human CK1d at 1.82 nM by HotSpot assay relative to control
Chain of Casein kinase I isoform delta (Homo sapiens) (P48730 whole entry, looked up, canonical isoform): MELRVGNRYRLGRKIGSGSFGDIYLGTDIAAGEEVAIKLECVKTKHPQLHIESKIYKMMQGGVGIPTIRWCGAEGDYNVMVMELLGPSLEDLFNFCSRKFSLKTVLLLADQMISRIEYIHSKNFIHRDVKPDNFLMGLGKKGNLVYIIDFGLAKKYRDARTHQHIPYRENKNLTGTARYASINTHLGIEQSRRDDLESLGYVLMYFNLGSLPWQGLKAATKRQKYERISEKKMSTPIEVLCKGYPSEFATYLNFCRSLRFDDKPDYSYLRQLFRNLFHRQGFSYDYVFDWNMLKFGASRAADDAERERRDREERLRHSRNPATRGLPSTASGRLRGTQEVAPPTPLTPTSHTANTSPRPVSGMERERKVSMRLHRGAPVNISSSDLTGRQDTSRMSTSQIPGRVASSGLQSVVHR

[10] = target: Casein kinase I isoform gamma-2 (Homo sapiens) (UniProt P78368); assay: Inhibition of human CK1g2 at 1.82 nM by HotSpot assay relative to control
Chain of Casein kinase I isoform gamma-2 (Homo sapiens) (P78368 whole entry, looked up, canonical isoform): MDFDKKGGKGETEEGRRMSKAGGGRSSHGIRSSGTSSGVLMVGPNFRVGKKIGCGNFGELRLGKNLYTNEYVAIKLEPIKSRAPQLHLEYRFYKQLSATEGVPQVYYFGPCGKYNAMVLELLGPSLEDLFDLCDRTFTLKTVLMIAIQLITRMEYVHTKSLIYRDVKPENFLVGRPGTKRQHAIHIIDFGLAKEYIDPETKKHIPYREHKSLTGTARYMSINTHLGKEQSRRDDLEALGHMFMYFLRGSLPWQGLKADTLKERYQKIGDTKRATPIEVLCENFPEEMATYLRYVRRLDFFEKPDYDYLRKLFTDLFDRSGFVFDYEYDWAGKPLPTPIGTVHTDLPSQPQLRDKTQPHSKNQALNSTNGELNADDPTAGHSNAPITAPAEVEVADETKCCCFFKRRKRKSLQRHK

[11] = target: Focal adhesion kinase 1 (Homo sapiens) (UniProt Q05397); assay: Inhibition of human FAK at 1.82 nM by HotSpot assay relative to control
Chain of Focal adhesion kinase 1 (Homo sapiens) (Q05397 2-1052 limits assumed): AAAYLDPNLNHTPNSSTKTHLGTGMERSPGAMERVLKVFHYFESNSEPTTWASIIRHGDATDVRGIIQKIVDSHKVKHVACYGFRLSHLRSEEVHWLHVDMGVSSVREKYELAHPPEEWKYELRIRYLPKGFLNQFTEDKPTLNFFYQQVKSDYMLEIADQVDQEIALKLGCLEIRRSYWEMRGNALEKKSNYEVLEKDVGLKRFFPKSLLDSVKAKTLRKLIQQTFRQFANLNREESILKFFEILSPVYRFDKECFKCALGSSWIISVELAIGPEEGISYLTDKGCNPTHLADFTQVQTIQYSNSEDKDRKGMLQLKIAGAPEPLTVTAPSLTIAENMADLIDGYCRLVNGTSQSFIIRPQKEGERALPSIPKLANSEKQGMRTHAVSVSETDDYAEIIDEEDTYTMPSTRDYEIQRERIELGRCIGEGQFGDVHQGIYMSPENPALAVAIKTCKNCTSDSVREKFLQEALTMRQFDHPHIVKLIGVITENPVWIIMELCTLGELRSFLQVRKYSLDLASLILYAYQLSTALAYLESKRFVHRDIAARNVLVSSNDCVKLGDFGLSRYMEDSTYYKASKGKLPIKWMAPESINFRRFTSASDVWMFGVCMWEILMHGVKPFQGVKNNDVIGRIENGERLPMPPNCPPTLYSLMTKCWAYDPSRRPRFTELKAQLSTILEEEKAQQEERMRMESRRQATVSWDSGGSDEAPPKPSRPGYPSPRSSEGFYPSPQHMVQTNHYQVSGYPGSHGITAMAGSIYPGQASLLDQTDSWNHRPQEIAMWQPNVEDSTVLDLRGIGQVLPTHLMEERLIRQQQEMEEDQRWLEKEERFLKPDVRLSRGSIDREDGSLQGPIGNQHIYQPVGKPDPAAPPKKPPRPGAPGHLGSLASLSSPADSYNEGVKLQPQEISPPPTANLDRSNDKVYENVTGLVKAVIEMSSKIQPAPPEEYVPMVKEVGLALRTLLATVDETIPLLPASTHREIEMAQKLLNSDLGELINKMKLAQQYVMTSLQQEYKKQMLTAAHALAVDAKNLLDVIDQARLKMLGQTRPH

[12] = target: Tyrosine-protein kinase Lyn (Homo sapiens) (UniProt P07948); assay: Inhibition of human LYN B at 1.82 nM by HotSpot assay relative to control
[13] = target: Dual specificity mitogen-activated protein kinase kinase 2 (Homo sapiens) (UniProt P36507); assay: Inhibition of human MEK2 at 1.82 nM by HotSpot assay relative to control
Chain of Dual specificity mitogen-activated protein kinase kinase 2 (Homo sapiens) (P36507 whole entry): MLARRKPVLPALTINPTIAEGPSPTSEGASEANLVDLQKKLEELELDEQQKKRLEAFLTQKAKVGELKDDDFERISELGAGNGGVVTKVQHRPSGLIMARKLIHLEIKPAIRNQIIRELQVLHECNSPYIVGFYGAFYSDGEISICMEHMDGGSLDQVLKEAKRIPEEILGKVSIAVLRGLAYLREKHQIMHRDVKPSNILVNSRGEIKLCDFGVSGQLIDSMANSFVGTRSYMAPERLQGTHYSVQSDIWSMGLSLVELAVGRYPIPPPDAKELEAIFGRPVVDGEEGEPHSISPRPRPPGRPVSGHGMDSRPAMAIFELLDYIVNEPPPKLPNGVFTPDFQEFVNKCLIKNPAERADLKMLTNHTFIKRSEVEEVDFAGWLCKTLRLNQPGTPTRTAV

[14] = target: T4, Mitogen-activated protein kinase 13 (Homo sapiens) (UniProt O15264); assay: Inhibition of human MAPK13 at 1.82 nM by HotSpot assay relative to control
T4 sequence (whole entry): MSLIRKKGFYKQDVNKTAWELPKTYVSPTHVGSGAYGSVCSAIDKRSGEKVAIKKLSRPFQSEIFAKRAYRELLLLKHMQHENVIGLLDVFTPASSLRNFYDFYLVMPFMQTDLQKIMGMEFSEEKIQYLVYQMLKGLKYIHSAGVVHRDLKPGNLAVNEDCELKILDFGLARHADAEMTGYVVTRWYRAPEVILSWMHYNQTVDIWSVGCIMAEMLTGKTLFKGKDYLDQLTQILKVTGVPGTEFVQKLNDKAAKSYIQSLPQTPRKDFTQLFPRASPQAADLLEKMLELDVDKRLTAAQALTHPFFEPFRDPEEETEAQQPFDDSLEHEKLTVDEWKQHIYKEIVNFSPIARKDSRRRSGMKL

[15] = target: Casein kinase I isoform gamma-1 (Homo sapiens) (UniProt Q9HCP0); assay: Inhibition of human CK1g1 at 500 nM by HotSpot assay relative to control
Chain of Casein kinase I isoform gamma-1 (Homo sapiens) (Q9HCP0 whole entry, looked up, canonical isoform): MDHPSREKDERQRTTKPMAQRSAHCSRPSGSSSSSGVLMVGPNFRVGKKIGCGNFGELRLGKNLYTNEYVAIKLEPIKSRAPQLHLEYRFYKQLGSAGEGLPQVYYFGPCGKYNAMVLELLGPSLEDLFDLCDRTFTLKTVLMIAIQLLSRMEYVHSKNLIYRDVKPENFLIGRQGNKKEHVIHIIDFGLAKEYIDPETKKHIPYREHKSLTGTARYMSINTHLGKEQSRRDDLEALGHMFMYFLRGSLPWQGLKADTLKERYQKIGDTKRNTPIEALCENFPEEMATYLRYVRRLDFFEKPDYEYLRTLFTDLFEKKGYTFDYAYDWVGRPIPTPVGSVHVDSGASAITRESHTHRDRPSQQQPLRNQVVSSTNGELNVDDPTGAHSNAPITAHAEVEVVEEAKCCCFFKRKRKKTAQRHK

Chain of Tyrosine-protein kinase Lck (Homo sapiens) (P06239 2-509 limits assumed): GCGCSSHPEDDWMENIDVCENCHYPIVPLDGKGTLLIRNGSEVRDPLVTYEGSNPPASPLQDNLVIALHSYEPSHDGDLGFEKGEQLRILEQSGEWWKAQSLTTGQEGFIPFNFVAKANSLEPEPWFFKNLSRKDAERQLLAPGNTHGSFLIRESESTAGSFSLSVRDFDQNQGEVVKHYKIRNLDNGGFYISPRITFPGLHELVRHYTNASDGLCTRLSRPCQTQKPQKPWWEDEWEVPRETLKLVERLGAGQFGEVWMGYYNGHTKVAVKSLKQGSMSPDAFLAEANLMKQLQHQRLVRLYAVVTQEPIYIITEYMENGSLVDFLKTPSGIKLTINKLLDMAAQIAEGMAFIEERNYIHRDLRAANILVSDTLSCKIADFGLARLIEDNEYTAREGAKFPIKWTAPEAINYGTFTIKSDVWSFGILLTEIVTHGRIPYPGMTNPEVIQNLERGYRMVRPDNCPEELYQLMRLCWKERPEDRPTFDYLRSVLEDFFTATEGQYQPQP
Chain of Calcium/calmodulin-dependent protein kinase type 1 (Homo sapiens) (Q14012 whole entry, looked up): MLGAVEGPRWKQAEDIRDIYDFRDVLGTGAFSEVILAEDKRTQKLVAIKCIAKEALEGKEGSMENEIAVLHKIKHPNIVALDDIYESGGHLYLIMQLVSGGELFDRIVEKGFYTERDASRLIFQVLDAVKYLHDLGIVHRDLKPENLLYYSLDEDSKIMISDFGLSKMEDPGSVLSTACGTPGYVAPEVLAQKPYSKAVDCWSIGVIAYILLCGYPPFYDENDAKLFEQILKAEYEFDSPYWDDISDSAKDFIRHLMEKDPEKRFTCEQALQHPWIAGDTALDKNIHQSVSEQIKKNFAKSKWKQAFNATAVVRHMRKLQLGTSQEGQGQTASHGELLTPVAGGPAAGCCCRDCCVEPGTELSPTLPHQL

SMILES: C[C@]1(O)C[C@@H](c2nc(-c3ccc4ccc(-c5ccccc5)nc4c3)c3c(N)nccn32)C1
- inhibition [1]: 9.19%
- inhibition [2]: 6.33%
- inhibition [3]: -8.63%
- inhibition [4]: 1.97%
- inhibition [5]: -0.8%
- inhibition [6]: 11%
- inhibition [7]: -6.49%

SMILES: C[C@@]1(C(=O)Nc2ccc(F)nc2)CCCN1c1nc(Nc2cc(C3CC3)n[nH]2)c2cccn2n1
- inhibition [8]: 35.7%
- inhibition [9]: 0.92%
- inhibition [10]: -3.24%
- inhibition [11]: 1.65%
- inhibition [12]: 2.74%
- inhibition [13]: 1.78%
- inhibition [14]: -4.13%

SMILES: Nc1n[nH]c2nnc(-c3c(-c4ccccc4)nn4ccccc34)cc12
- inhibition [15]: -3.88%
